According to the supplement of paper PMC10307832:

Tests used:
Assay in all cases: relative viability (nuclei count vs DMSO), 5 days (fraction); higher = more cells survive
NCI-H727 = test system: NCI-H727
In short: (§1)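 Lung cancer cell lines were pin-tool dosed in 1536-well plates on the day after seeding, with either a lone drug or a fixed anchor-drug dose plus five library-drug doses (not always all listed) in √10 steps. Nuclei were counted on 4× images after 5 days. Relative viability is the ratio of treated-well to vehicle-well nuclei counts, with each value a median of duplicate plates.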

NCI-H3122 = test system: NCI-H3122
In short: as §1

SW 900 = test system: SW 900
In short: as §1

LOU-NH91 = test system: LOU-NH91
In short: as §1

LK-2 = test system: LK-2
In short: as §1

EKVX = test system: EKVX
In short: as §1

CAL-12T = test system: CAL-12T
In short: as §1

HCC-366 = test system: HCC-366
In short: as §1

NCI-H441 = test system: NCI-H441
In short: as §1

NCI-H2170 = test system: NCI-H2170
In short: as §1

NCI-H1437 = test system: NCI-H1437
In short: as §1

HARA = test system: HARA
In short: as §1

ABC-1 = test system: ABC-1
In short: as §1

BEN = test system: BEN
In short: as §1

NCI-H2009 = test system: NCI-H2009
In short: as §1

NCI-H661 = test system: NCI-H661
In short: as §1

PC-14 = test system: PC-14
In short: as §1

COR-L 105 = test system: COR-L 105
In short: as §1

NCI-H1666 = test system: NCI-H1666
In short: as §1

NCI-H460 = test system: NCI-H460
In short: as §1

NCI-H1650 = test system: NCI-H1650
In short: as §1

201T = test system: 201T
In short: as §1

## COc1cc2nccc(Oc3ccc(NC(=O)Nc4cc(C)on4)c(Cl)c3)c2cc1OC [Tivozanib] + Cc1cc(Nc2cc(N3CCN(C)CC3)nc(Sc3ccc(NC(=O)C4CC4)cc3)n2)n[nH]1 [Tozasertib] (partner 0.1 µM)
NCI-H727; first compound 0.005 µM
  relative viability: 0.533
NCI-H727; first compound 0.01581 µM
  relative viability: 0.649
NCI-H727; first compound 0.05 µM
  relative viability: 0.588
NCI-H727; first compound 0.1581 µM
  relative viability: 0.635
NCI-H727; first compound 0.5 µM
  relative viability: 0.886
NCI-H3122; first compound 0.005 µM
  relative viability: 0.418
NCI-H3122; first compound 0.01581 µM
  relative viability: 0.428
NCI-H3122; first compound 0.05 µM
  relative viability: 0.468
NCI-H3122; first compound 0.1581 µM
  relative viability: 0.586
NCI-H3122; first compound 0.5 µM
  relative viability: 0.253
SW 900; first compound 0.005 µM
  relative viability: 0.624
SW 900; first compound 0.01581 µM
  relative viability: 0.626
SW 900; first compound 0.05 µM
  relative viability: 0.606
SW 900; first compound 0.1581 µM
  relative viability: 0.637
SW 900; first compound 0.5 µM
  relative viability: 0.565
LOU-NH91; first compound 0.005 µM
  relative viability: 0.644
LOU-NH91; first compound 0.01581 µM
  relative viability: 0.669
LOU-NH91; first compound 0.05 µM
  relative viability: 0.775
LOU-NH91; first compound 0.1581 µM
  relative viability: 0.759
LOU-NH91; first compound 0.5 µM
  relative viability: 0.659
LK-2; first compound 0.005 µM
  relative viability: 0.173
LK-2; first compound 0.01581 µM
  relative viability: 0.175
LK-2; first compound 0.05 µM
  relative viability: 0.159
LK-2; first compound 0.1581 µM
  relative viability: 0.172
LK-2; first compound 0.5 µM
  relative viability: 0.177
EKVX; first compound 0.005 µM
  relative viability: 0.443
EKVX; first compound 0.01581 µM
  relative viability: 0.356
EKVX; first compound 0.05 µM
  relative viability: 0.35
EKVX; first compound 0.1581 µM
  relative viability: 0.47
EKVX; first compound 0.5 µM
  relative viability: 0.474
CAL-12T; first compound 0.005 µM
  relative viability: 0.281
CAL-12T; first compound 0.01581 µM
  relative viability: 0.314
CAL-12T; first compound 0.05 µM
  relative viability: 0.373
CAL-12T; first compound 0.1581 µM
  relative viability: 0.277
CAL-12T; first compound 0.5 µM
  relative viability: 0.299
HCC-366; first compound 0.005 µM
  relative viability: 0.094
HCC-366; first compound 0.01581 µM
  relative viability: 0.115
HCC-366; first compound 0.05 µM
  relative viability: 0.156
HCC-366; first compound 0.1581 µM
  relative viability: 0.137
HCC-366; first compound 0.5 µM
  relative viability: 0.111
NCI-H441; first compound 0.005 µM
  relative viability: 0.682
NCI-H441; first compound 0.01581 µM
  relative viability: 0.635
NCI-H441; first compound 0.05 µM
  relative viability: 0.596
NCI-H441; first compound 0.1581 µM
  relative viability: 0.768
NCI-H441; first compound 0.5 µM
  relative viability: 0.474
NCI-H2170; first compound 0.005 µM
  relative viability: 0.673
NCI-H2170; first compound 0.01581 µM
  relative viability: 0.685
NCI-H2170; first compound 0.05 µM
  relative viability: 0.801
NCI-H2170; first compound 0.1581 µM
  relative viability: 0.671
NCI-H2170; first compound 0.5 µM
  relative viability: 0.784
NCI-H1437; first compound 0.005 µM
  relative viability: 0.405
NCI-H1437; first compound 0.01581 µM
  relative viability: 0.343
NCI-H1437; first compound 0.05 µM
  relative viability: 0.53
NCI-H1437; first compound 0.1581 µM
  relative viability: 0.44
NCI-H1437; first compound 0.5 µM
  relative viability: 0.436
HARA; first compound 0.005 µM
  relative viability: 0.113
HARA; first compound 0.01581 µM
  relative viability: 0.107
HARA; first compound 0.05 µM
  relative viability: 0.112
HARA; first compound 0.1581 µM
  relative viability: 0.133
HARA; first compound 0.5 µM
  relative viability: 0.145
ABC-1; first compound 0.005 µM
  relative viability: 0.167
ABC-1; first compound 0.01581 µM
  relative viability: 0.185
ABC-1; first compound 0.05 µM
  relative viability: 0.188
ABC-1; first compound 0.1581 µM
  relative viability: 0.159
ABC-1; first compound 0.5 µM
  relative viability: 0.168
BEN; first compound 0.005 µM
  relative viability: 0.515
BEN; first compound 0.01581 µM
  relative viability: 0.425
BEN; first compound 0.05 µM
  relative viability: 0.572
BEN; first compound 0.5 µM
  relative viability: 0.542
NCI-H2009; first compound 0.005 µM
  relative viability: 0.708
NCI-H2009; first compound 0.01581 µM
  relative viability: 0.738
NCI-H2009; first compound 0.05 µM
  relative viability: 0.733
NCI-H2009; first compound 0.1581 µM
  relative viability: 0.725
NCI-H2009; first compound 0.5 µM
  relative viability: 0.759
NCI-H661; first compound 0.005 µM
  relative viability: 0.37
NCI-H661; first compound 0.01581 µM
  relative viability: 0.362
NCI-H661; first compound 0.05 µM
  relative viability: 0.359
NCI-H661; first compound 0.1581 µM
  relative viability: 0.363
NCI-H661; first compound 0.5 µM
  relative viability: 0.363
PC-14; first compound 0.005 µM
  relative viability: 0.566
PC-14; first compound 0.01581 µM
  relative viability: 0.647
PC-14; first compound 0.05 µM
  relative viability: 0.55
PC-14; first compound 0.1581 µM
  relative viability: 0.615
PC-14; first compound 0.5 µM
  relative viability: 0.507
COR-L 105; first compound 0.005 µM
  relative viability: 0.366
COR-L 105; first compound 0.01581 µM
  relative viability: 0.371
COR-L 105; first compound 0.05 µM
  relative viability: 0.406
COR-L 105; first compound 0.1581 µM
  relative viability: 0.374
COR-L 105; first compound 0.5 µM
  relative viability: 0.493
NCI-H1666; first compound 0.005 µM
  relative viability: 0.538
NCI-H1666; first compound 0.01581 µM
  relative viability: 0.605
NCI-H1666; first compound 0.05 µM
  relative viability: 0.668
NCI-H1666; first compound 0.1581 µM
  relative viability: 0.628
NCI-H1666; first compound 0.5 µM
  relative viability: 0.646
NCI-H460; first compound 0.005 µM
  relative viability: 0.394
NCI-H460; first compound 0.01581 µM
  relative viability: 0.394
NCI-H460; first compound 0.05 µM
  relative viability: 0.536
NCI-H460; first compound 0.1581 µM
  relative viability: 0.554
NCI-H460; first compound 0.5 µM
  relative viability: 0.446
NCI-H1650; first compound 0.005 µM
  relative viability: 0.445
NCI-H1650; first compound 0.01581 µM
  relative viability: 0.436
NCI-H1650; first compound 0.05 µM
  relative viability: 0.421
NCI-H1650; first compound 0.1581 µM
  relative viability: 0.349
NCI-H1650; first compound 0.5 µM
  relative viability: 0.422
201T; first compound 0.005 µM
  relative viability: 0.974
201T; first compound 0.01581 µM
  relative viability: 0.959
201T; first compound 0.05 µM
  relative viability: 0.981
201T; first compound 0.1581 µM
  relative viability: 0.985
201T; first compound 0.5 µM
  relative viability: 0.996
